Usually solubility stands for how much of the substance goes into solution per volume. Low readings indicate little dissolved substance, high ones much dissolved substance.

The source of these data is patent US20220202322A1, “DRUG RELEASE COMPOSITIONS AND METHODS FOR DELIVERY” (ABBOTT DIABETES CARE INC., priority 2020, published 2022).

Structures are written as SMILES. Values after ≈ are worked out from the molar mass of the structure shown.

The series in a line: physchem. Type of series: physicochemical. The note with it: water. From the text: Conjugating dexamethasone to a water-soluble polymer makes dexamethasone water soluble, which allows for more consistent dispensing. […] As further shown in FIG. 22D, dispensing of the solution of 18 without a crosslinking agent (left panel) and with a crosslinking agent (right panel) was consistent and performed without difficulty.

Take `C[C@@H]1C[C@H]2[C@@H]3CCC4=CC(=O)C=C[C@]4(C)[C@@]3(F)[C@@H](O)C[C@]2(C)[C@@]1(O)C(=O)CO` [dexamethasone]: the concentration in solution (solubility) was 0.05 mg/mL (≈ 127 µM).
